Reference: the NIST ThermoML archive (doi:10.1016/j.jct.2019.02.001)
“And” between values parts separate entries of the source, which are not always exact repeats. Identical values can stand only once. Numbers after ± are expanded uncertainties.

Experiment: molar enthalpy of vaporization or sublimation
Conditions: 298.15 K; Liquid; Static calorimetry

Row | molar enthalpy | Structure (SMILES)
1 | 19.9 ± 0.526 kcal/mol | CCOC(=O)c1cccc(N)c1 [ethyl 3-aminobenzoate]
2 | 11.9 kcal/mol and 12.5 kcal/mol | CCCCCCCCCC [decane]

Row | Structure (SMILES) | molar enthalpy
3 | CCOC(=O)c1ccccc1N [ethyl 2-aminobenzoate] | 17 ± 0.311 kcal/mol
